Laboratory results taken from patent publication US20110098177A1, “METHODS AND COMPOSITIONS OF PLANT MICRONUTRIENTS” (NOVUS INTERNATIONAL INC., priority 2006, published 2011).
“Also recorded” adds a separate entry of the source.

Assays:
Assay type in all cases: in vivo
Tygress tomato plants [1] = assay: Foliar nutrient concentration 2 weeks after treatment, greenhouse tomato (Examples 4-6); details: for B concentration in tomato leaves / Ca concentration in tomato leaves / Cu concentration in tomato leaves / Fe concentration in tomato leaves / K concentration in tomato leaves / Mg concentration in tomato leaves / Mn concentration in tomato leaves / N concentration in tomato leaves / P concentration in tomato leaves: 2 weeks after Zn treatment; for Foliar Zn concentration: tomato leaves 2 weeks after Zn treatment
Outline: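 Tygress tomato in 2-gallon pots of micronutrient-poor medium (negligible Fe, Zn, Mn, Cu) in greenhouse; foliar treatments at 5 WAT in 200 mL/plant water with non-ionic surfactant. Newest non-applied leaves analysed 2 weeks before and after treatment; marketable fruit harvested three times from 10 WAT, graded. RCBD, 6 replications, LSD 5%.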

Tygress tomato plants [2] = assay: Foliar nutrient concentration at 6 WAT, open-field tomato (Examples 7-10); details: 6 WAT, open field; for Foliar B concentration of tomato plants / Foliar Ca concentration of tomato plants / Foliar Cu concentration of tomato plants / Foliar Fe concentration of tomato plants / Foliar K concentration of tomato plants / Foliar Mg concentration of tomato plants / Foliar Mn concentration of tomato plants / Foliar N concentration of tomato plants / Foliar P concentration of tomato plants / Foliar Zn concentration of tomato plants: product rate as Table 17
Outline: (§1)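 Open-field 2008 trial, Balm FL; 'Tygress' tomato and 'Patriot' pepper transplants on drip-fed raised beds. Foliar micronutrient sprays at 3 and 5 WAT (BIOX-CM at 4 and 5), 60 gal/acre with surfactant. Youngest mature leaves sampled 6 WAT; RCBD, 5 replications, Fisher's LSD 5%.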

[3] = tested on: Patriot bell pepper plants; assay: Foliar nutrient concentration at 6 WAT, open-field bell pepper (Examples 7-10); details: 6 WAT, open field; for Foliar B concentration of bell pepper plants / Foliar Ca concentration of bell pepper plants / Foliar Cu concentration of bell pepper plants / Foliar Fe concentration of bell pepper plants / Foliar K concentration of bell pepper plants / Foliar Mg concentration of bell pepper plants / Foliar Mn concentration of bell pepper plants / Foliar N concentration of bell pepper plants / Foliar P concentration of bell pepper plants / Foliar Zn concentration of bell pepper plants: product rate as Table 17
Outline: as §1

Tygress tomato plants [4] = assay: Marketable yield, open-field tomato (Examples 7-10); details: open field; for Marketable yield, Tomato: lb/acre/season: BIOX-Z 1.3, Cu 6.7, M 23.0, Fe 3.2, INC 4.0, INZ 0.6, CM 10.0, GZ 1.0, GF 4.0, EDZ 1.4, EDM 23.0
Outline: as §1

[5] = tested on: Patriot bell pepper plants; assay: Marketable yield, open-field bell pepper (Examples 7-10); details: open field; lb/acre/season: BIOX-Z 1.3, Cu 6.7, M 23.0, Fe 3.2, INC 4.0, INZ 0.6, CM 10.0, GZ 1.0, GF 4.0, EDZ 1.4, EDM 23.0
Outline: as §1

Tygress tomato plants [6] = assay: Nutrient concentration of tomato fruits at 10 WAT, open field (Examples 7-10); details: 10 WAT; open field; product rate as Table 17
Outline: as §1

Compound: CSCCC(O)C(=O)[O-].CSCCC(O)C(=O)[O-].[Zn+2] (stereo not shown) [BIOX-Z, Zn-HMTBA]
- Foliar Zn concentration compared with control (in words) (Tygress tomato plants [1]; 0.8 lb/acre, 2 weeks after application): significantly higher than control
- B concentration in tomato leaves (Tygress tomato plants [1]; Zn 0.1 lb/acre): 25 ppm
- Ca concentration in tomato leaves (Tygress tomato plants [1]; Zn 0.1 lb/acre): 0.6%
- Cu concentration in tomato leaves (Tygress tomato plants [1]; Zn 0.1 lb/acre): 8 ppm
- Fe concentration in tomato leaves (Tygress tomato plants [1]; Zn 0.1 lb/acre): 98 ppm
- K concentration in tomato leaves (Tygress tomato plants [1]; Zn 0.1 lb/acre): 3.5%
- Mg concentration in tomato leaves (Tygress tomato plants [1]; Zn 0.1 lb/acre): 0.3%
- Mn concentration in tomato leaves (Tygress tomato plants [1]; Zn 0.1 lb/acre): 55 ppm
- N concentration in tomato leaves (Tygress tomato plants [1]; Zn 0.1 lb/acre): 3.6%
- P concentration in tomato leaves (Tygress tomato plants [1]; Zn 0.1 lb/acre): 0.5%
- Foliar Zn concentration (Tygress tomato plants [1]; Zn 0.1 lb/acre): 86 bc ppm
- B concentration in tomato leaves (Tygress tomato plants [1]; Zn 0.2 lb/acre): 27 ppm
- Ca concentration in tomato leaves (Tygress tomato plants [1]; Zn 0.2 lb/acre): 0.6%
- Cu concentration in tomato leaves (Tygress tomato plants [1]; Zn 0.2 lb/acre): 6 ppm
- Fe concentration in tomato leaves (Tygress tomato plants [1]; Zn 0.2 lb/acre): 88 ppm
- K concentration in tomato leaves (Tygress tomato plants [1]; Zn 0.2 lb/acre): 3.7%
- Mg concentration in tomato leaves (Tygress tomato plants [1]; Zn 0.2 lb/acre): 0.3%
- Mn concentration in tomato leaves (Tygress tomato plants [1]; Zn 0.2 lb/acre): 56 ppm
- N concentration in tomato leaves (Tygress tomato plants [1]; Zn 0.2 lb/acre): 3.3%
- P concentration in tomato leaves (Tygress tomato plants [1]; Zn 0.2 lb/acre): 0.5%
- Foliar Zn concentration (Tygress tomato plants [1]; Zn 0.2 lb/acre): 112 bc ppm
- B concentration in tomato leaves (Tygress tomato plants [1]; Zn 0.4 lb/acre): 28 ppm
- Ca concentration in tomato leaves (Tygress tomato plants [1]; Zn 0.4 lb/acre): 0.6%
- Cu concentration in tomato leaves (Tygress tomato plants [1]; Zn 0.4 lb/acre): 6 ppm
- Fe concentration in tomato leaves (Tygress tomato plants [1]; Zn 0.4 lb/acre): 88 ppm
- K concentration in tomato leaves (Tygress tomato plants [1]; Zn 0.4 lb/acre): 3.5%
- Mg concentration in tomato leaves (Tygress tomato plants [1]; Zn 0.4 lb/acre): 0.3%
- Mn concentration in tomato leaves (Tygress tomato plants [1]; Zn 0.4 lb/acre): 59 ppm
- N concentration in tomato leaves (Tygress tomato plants [1]; Zn 0.4 lb/acre): 3.4%
- P concentration in tomato leaves (Tygress tomato plants [1]; Zn 0.4 lb/acre): 0.5%
- Foliar Zn concentration (Tygress tomato plants [1]; Zn 0.4 lb/acre): 128 bc ppm
- B concentration in tomato leaves (Tygress tomato plants [1]; Zn 0.8 lb/acre): 25 ppm
- Ca concentration in tomato leaves (Tygress tomato plants [1]; Zn 0.8 lb/acre): 0.5%
- Cu concentration in tomato leaves (Tygress tomato plants [1]; Zn 0.8 lb/acre): 4 ppm
- Fe concentration in tomato leaves (Tygress tomato plants [1]; Zn 0.8 lb/acre): 93 ppm
- K concentration in tomato leaves (Tygress tomato plants [1]; Zn 0.8 lb/acre): 3.4%
- Mg concentration in tomato leaves (Tygress tomato plants [1]; Zn 0.8 lb/acre): 0.3%
- Mn concentration in tomato leaves (Tygress tomato plants [1]; Zn 0.8 lb/acre): 54 ppm
- N concentration in tomato leaves (Tygress tomato plants [1]; Zn 0.8 lb/acre): 3.5%
- P concentration in tomato leaves (Tygress tomato plants [1]; Zn 0.8 lb/acre): 0.5%
- Foliar Zn concentration (Tygress tomato plants [1]; Zn 0.8 lb/acre): 500 ab ppm
- Foliar Zn concentration of tomato plants, statement (Tygress tomato plants [2]): highest foliar concentration of Zn; also recorded: significantly higher foliar Zn content
- Foliar B concentration of tomato plants (Tygress tomato plants [2]): 59 ppm
- Foliar Ca concentration of tomato plants (Tygress tomato plants [2]): 2.2%
- Foliar Cu concentration of tomato plants (Tygress tomato plants [2]): 338 ppm
- Foliar Fe concentration of tomato plants (Tygress tomato plants [2]): 76 ppm
- Foliar K concentration of tomato plants (Tygress tomato plants [2]): 5.5%
- Foliar Mg concentration of tomato plants (Tygress tomato plants [2]): 0.78%
- Foliar Mn concentration of tomato plants (Tygress tomato plants [2]): 198 ppm
- Foliar N concentration of tomato plants (Tygress tomato plants [2]): 4.7%
- Foliar P concentration of tomato plants (Tygress tomato plants [2]): 0.21%
- Foliar Zn concentration of tomato plants (Tygress tomato plants [2]): 434 a ppm
- Foliar Zn concentration of bell pepper plants compared to control, statement [3]: significantly higher foliar concentration of Zn
- Foliar B concentration of bell pepper plants [3]: 62 ppm
- Foliar Ca concentration of bell pepper plants [3]: 4.4%
- Foliar Cu concentration of bell pepper plants [3]: 387 ppm
- Foliar Fe concentration of bell pepper plants [3]: 121 ppm
- Foliar K concentration of bell pepper plants [3]: 3.7%
- Foliar Mg concentration of bell pepper plants [3]: 0.50%
- Foliar Mn concentration of bell pepper plants [3]: 240 ppm
- Foliar N concentration of bell pepper plants [3]: 4.2%
- Foliar P concentration of bell pepper plants [3]: 0.25%
- Foliar Zn concentration of bell pepper plants [3]: 220 a ppm
- Tomato marketable yield compared to control, statement (Tygress tomato plants [4]): significantly higher than the control tomato harvest; also recorded: higher marketable yield compared to control
- Marketable yield, Tomato (Tygress tomato plants [4]): 17.5 ton/acre
- Marketable yield, Bell Pepper [5]: 8.4 ton/acre
- B concentration of tomato fruits (Tygress tomato plants [6]): 20 ppm
- Ca concentration of tomato fruits (Tygress tomato plants [6]): 0.2%
- Cu concentration of tomato fruits (Tygress tomato plants [6]): 21 ppm
- Fe concentration of tomato fruits (Tygress tomato plants [6]): 82 ppm
- K concentration of tomato fruits (Tygress tomato plants [6]): 8.0%
- Mg concentration of tomato fruits (Tygress tomato plants [6]): 0.36%
- Mn concentration of tomato fruits (Tygress tomato plants [6]): 38 ppm
- N concentration of tomato fruits (Tygress tomato plants [6]): 4.3%
- P concentration of tomato fruits (Tygress tomato plants [6]): 0.63%
- Zn concentration of tomato fruits (Tygress tomato plants [6]): 308 ppm

Compound: EDTA chelated zinc [BIOX-EDZ]
- B concentration in tomato leaves (Tygress tomato plants [1]; Zn 0.4 lb/acre): 21 ppm
- Ca concentration in tomato leaves (Tygress tomato plants [1]; Zn 0.4 lb/acre): 0.6%
- Cu concentration in tomato leaves (Tygress tomato plants [1]; Zn 0.4 lb/acre): 7 ppm
- Fe concentration in tomato leaves (Tygress tomato plants [1]; Zn 0.4 lb/acre): 95 ppm
- K concentration in tomato leaves (Tygress tomato plants [1]; Zn 0.4 lb/acre): 3.6%
- Mg concentration in tomato leaves (Tygress tomato plants [1]; Zn 0.4 lb/acre): 0.3%
- Mn concentration in tomato leaves (Tygress tomato plants [1]; Zn 0.4 lb/acre): 54 ppm
- N concentration in tomato leaves (Tygress tomato plants [1]; Zn 0.4 lb/acre): 3.6%
- P concentration in tomato leaves (Tygress tomato plants [1]; Zn 0.4 lb/acre): 0.5%
- Foliar Zn concentration (Tygress tomato plants [1]; Zn 0.4 lb/acre): 214.bc ppm
- Foliar Zn concentration of tomato plants, statement (Tygress tomato plants [2]): All treatments except BIOX-EDZ resulted in significantly higher foliar Zn concentrations
- Foliar B concentration of tomato plants (Tygress tomato plants [2]): 44 ppm
- Foliar Ca concentration of tomato plants (Tygress tomato plants [2]): 1.9%
- Foliar Cu concentration of tomato plants (Tygress tomato plants [2]): 371 ppm
- Foliar Fe concentration of tomato plants (Tygress tomato plants [2]): 90 ppm
- Foliar K concentration of tomato plants (Tygress tomato plants [2]): 5.2%
- Foliar Mg concentration of tomato plants (Tygress tomato plants [2]): 0.69%
- Foliar Mn concentration of tomato plants (Tygress tomato plants [2]): 207 ppm
- Foliar N concentration of tomato plants (Tygress tomato plants [2]): 4.9%
- Foliar P concentration of tomato plants (Tygress tomato plants [2]): 0.24%
- Foliar Zn concentration of tomato plants (Tygress tomato plants [2]): 310 bc ppm
- Foliar Zn concentration of bell pepper plants compared to control, statement [3]: significantly higher foliar concentration of Zn
- Foliar B concentration of bell pepper plants [3]: 59 ppm
- Foliar Ca concentration of bell pepper plants [3]: 4.2%
- Foliar Cu concentration of bell pepper plants [3]: 421 ppm
- Foliar Fe concentration of bell pepper plants [3]: 121 ppm
- Foliar K concentration of bell pepper plants [3]: 3.2%
- Foliar Mg concentration of bell pepper plants [3]: 0.47%
- Foliar Mn concentration of bell pepper plants [3]: 284 ppm
- Foliar N concentration of bell pepper plants [3]: 4.2%
- Foliar P concentration of bell pepper plants [3]: 0.24%
- Foliar Zn concentration of bell pepper plants [3]: 234 a ppm
- Tomato marketable yield compared to control, statement (Tygress tomato plants [4]): significantly higher than the control tomato harvest
- Marketable yield, Tomato (Tygress tomato plants [4]): 16.2 ton/acre
- Marketable yield, Bell Pepper [5]: 8.1 ton/acre
- B concentration of tomato fruits (Tygress tomato plants [6]): 22 ppm
- Ca concentration of tomato fruits (Tygress tomato plants [6]): 0.2%
- Cu concentration of tomato fruits (Tygress tomato plants [6]): 23 ppm
- Fe concentration of tomato fruits (Tygress tomato plants [6]): 82 ppm
- K concentration of tomato fruits (Tygress tomato plants [6]): 8.5%
- Mg concentration of tomato fruits (Tygress tomato plants [6]): 0.37%
- Mn concentration of tomato fruits (Tygress tomato plants [6]): 43 ppm
- N concentration of tomato fruits (Tygress tomato plants [6]): 4.4%
- P concentration of tomato fruits (Tygress tomato plants [6]): 0.66%
- Zn concentration of tomato fruits (Tygress tomato plants [6]): 1018 ppm
